For the assay, the target named is T1, human GLP1R (Homo sapiens, UniProt P43220).
T1 construct: expressed in transfected cells
Nature of the assay: GLP1R activity assay (CRE/luciferase reporter, cAMP potency). Conditions: BHK cells stably co-expressing human GLP1R and CRE luciferase reporter; 3 h at 37°C; 8 concentrations; four-parameter logistic fit (Hill slope = 1); mean of n = 3 independent experiments; read-out: EC50, activation of GLP1R. It counts as cell-based. On the technique in general: Reporter assays use an easily measured gene product as a stand-in for the process of interest.

T1 sequence (P43220 24-463): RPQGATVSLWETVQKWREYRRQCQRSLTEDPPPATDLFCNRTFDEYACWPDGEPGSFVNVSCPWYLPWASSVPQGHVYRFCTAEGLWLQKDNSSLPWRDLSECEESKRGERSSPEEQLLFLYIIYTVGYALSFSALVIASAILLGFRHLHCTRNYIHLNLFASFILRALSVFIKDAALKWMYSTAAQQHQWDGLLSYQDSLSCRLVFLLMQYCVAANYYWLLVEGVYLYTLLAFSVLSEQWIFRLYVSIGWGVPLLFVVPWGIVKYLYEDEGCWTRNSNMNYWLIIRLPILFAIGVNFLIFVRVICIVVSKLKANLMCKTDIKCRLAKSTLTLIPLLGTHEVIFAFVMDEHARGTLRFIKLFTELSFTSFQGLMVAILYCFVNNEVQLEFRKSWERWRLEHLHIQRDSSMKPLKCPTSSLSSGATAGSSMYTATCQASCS
Protocol: GLP1R activity was measured through cyclic adenosine monophosphate (cAMP) potency using a clonal BHK cell line that stably co-express human GLP1R and the cAMP response element (CRE) luciferase reporter gene, essentially as previously reported ([33]). Briefly, frozen stocks of assay-ready cells were thawed to 37°C, washed once with PBS, and diluted to 100 000 cells/ml in assay buffer (DMEM without phenol red supplemented with 1× GlutaMAX, 10 mM HEPES, 1 w/v% ovalbumin, and 0.1 v/v% Pluronic F-68). Serial dilutions (10-fold dilutions in assay buffer, 8 concentrations for each compound) were made for GLP1–siRNA conjugates and free peptides in 96 well dilution plates using a Biomek i7 liquid handler. Then, 50 μl of each dilution were transferred to 96-well assay plates to which 50 μl of the diluted cell suspension was added (5000 cells/well). Plates were incubated for 3 h at 37°C in 5% CO2, then left at room temperature for 5 min before 100 μl SteadyLite Plus (PerkinElmer) was added to each well. Plates were sealed from light and incubated at room temperature for 30 min while gently shaking before luminescence was detected on a Biotek Synergy 2 plate reader.
This is performed by using a luciferase reporter under the control of CRE in recombinant BHK cells constitutively expressing human GLP1R. […]

For the molecule `CC[C@H](C)[C@H](NC(=O)[C@H](Cc1ccccc1)NC(=O)[C@H](CCC(=O)O)NC(=O)[C@H](CCCNC(=N)N)NC(=O)[C@H](C)NC(=O)[C@H](C)NC(=O)[C@H](CCC(N)=O)NC(=O)CNC(=O)[C@H](CCC(=O)O)NC(=O)[C@H](CC(C)C)NC(=O)[C@H](Cc1ccc(O)cc1)NC(=O)[C@H](CO)NC(=O)[C@H](CO)NC(=O)[C@@H](NC(=O)[C@H](CC(=O)O)NC(=O)[C@H](CO)NC(=O)[C@@H](NC(=O)[C@H](Cc1ccccc1)NC(=O)[C@@H](NC(=O)CNC(=O)[C@H](CCC(=O)O)NC(=O)[C@H](C)NC(=O)[C@@H](N)Cc1c[nH]cn1)[C@@H](C)O)[C@@H](C)O)C(C)C)C(=O)N[C@@H](C)C(=O)N[C@@H](Cc1c[nH]c2ccccc12)C(=O)N[C@@H](CC(C)C)C(=O)N[C@H](C(=O)N[C@@H](CCCNC(=N)N)C(=O)NCC(=O)N[C@@H](CCCNC(=N)N)C(=O)NCC(=O)N[C@@H](CCCCN)C(=O)O)C(C)C` [A], the EC50 was determined as 9 pM.

As usually defined, the EC50 is the concentration at which the effect is half-maximal.

Source of the values: PMC10783514, “Synthesis of peptide–siRNA conjugates via internal sulfonylphosphoramidate modifications and evaluation of their in vitro activity” (Nucleic Acids Research, 2023).
